Reference: a melting point compilation (Tetko et al.; mined from patent text by program, amines drawn as free bases though some values may be those of a salt)

SMILES | melting point
O=C1Nc2ccc(NC(=O)c3cccn(-c4ccc(F)cc4)c3=O)cc2/C1=C/c1ccc[nH]1 | > 300 °C
Cn1nnnc1CC(c1ccccc1)c1ccccc1 | 147 to 148 °C
CCCc1c(CS(=O)Cc2ccc(-c3nnn[nH]3)cc2)ccc(C(C)=O)c1O (stereo unspecified) | 112 to 116 °C
O=C(CCCOc1ccc(C=Cc2ccncc2)cc1)Nc1nnn[nH]1 | 274 to 276 °C
Cc1cccc(C)c1N(CC(C)Cl)C(=O)c1ccccc1 (stereo unspecified) | 106 to 109 °C
CCOC(=O)Cn1nc2ccc(OCCCN3CCC(OC(c4ccccc4)c4ccccc4)CC3)nn2c1=O | 124 to 125 °C
C=Cc1cc(Br)c(O)c(Br)c1 | 75 °C
O=C(O)C(=O)c1cccc(OCc2ccccc2Cl)c1OCc1ccccc1Cl | 116 to 118 °C
CCOC(=O)[C@@H]1OC(c2ccc3c(c2)OCO3)O[C@H]1C(=O)OCC | 39 to 40 °C
CC(=O)Nc1nc2c(Oc3cc(-c4ccc(C(F)(F)F)cc4NC(=O)C4CCCCN4CC(C)C)ncn3)cccc2s1 (stereo unspecified) | 153 to 155 °C
CC(=O)Oc1ccc(C(=O)O)c2ccccc12 | 182 to 184 °C
CC(C)(C)OC(=O)N1CC2CC1C(=O)S2 (stereo unspecified) | 91 °C
CCC(CC)C(=O)C1=C(O)c2cc(OC)c(OC)c(OC)c2C(O)(c2ccc(OC)c(OC)c2)C1C(=O)OC (stereo unspecified) | 156 to 157 °C
C=C(C(=O)OC)N(Cc1ccccc1NC(=O)C(F)(F)F)S(=O)(=O)c1ccc(OC)cc1 | 120 to 121 °C
COC(=O)c1ccc(CBr)c(N(C)C(=O)OC)c1 | 99 to 102 °C
O=c1[nH]c2ccccc2n1CCN1CCN(c2cc(O)cc(C(F)(F)F)c2)CC1 | 170 °C
CN1C(=O)CC[C@]2(C)c3ccc(Sc4nc5ccccc5s4)cc3CC[C@@H]12 | 188 to 189 °C
Cc1ccc(C(=O)Cc2nnnn2C)c(N)c1 | 155 to 156 °C
Brc1cnc(SCc2ccccc2)nc1 | 68 to 69 °C
CS(=O)(=O)c1ccc(-c2cnn(CC(F)(F)F)c(=O)c2C2CCCCC2)cc1 | 215 to 218 °C
CCCc1c(O)ccc2oc(Cc3ccc(OC)cc3)c(C)c12 | 91 to 93 °C
Cc1cccc(C(=O)c2ccc(Cl)cc2)c1 | 108 °C
CCc1nn2c(-c3cccc(C(F)(F)F)c3)ccnc2c1C#N | 144 to 146 °C
CCOC(=O)c1c(C)nc2ccc(NCCCN3CCC(OC(c4ccccc4)c4ccccc4)CC3)nn12 | 117 to 119 °C
CN(C)C=NC(=O)c1c(N2CCN(Cc3ccccc3)CC2)nn2c(-c3cccc(C(F)(F)F)c3)ccnc12 | 140 to 142 °C
Nc1cccc(SC(CCc2ccc(Cl)cc2)Cn2ccnc2)c1 (stereo unspecified) | 89 to 91 °C

SMILES | melting point
COc1ccc([N+](=O)[O-])c(Oc2cc(C)[nH]n2)n1 | 133 to 136 °C
COC1(c2csc(S(=O)(=O)c3ccc4c(c3)CC/C4=N\O)c2)CCOCC1 | 144 to 145 °C
Cn1cc(O)c(=O)c2cccc(F)c21 | 248 °C
COc1cccc2c1cc(SCCC(=O)O)n2C | 126 to 128 °C
COC(=O)c1cc(C(F)(F)F)[nH]c1-c1ccc(Cl)cc1 | 120 to 122 °C
O=c1c(Br)c(Br)cnn1-c1cccc(C(F)(F)F)c1 | 158 to 175 °C
CC(CO)Nc1c(F)cc2c(=O)c(C(=O)O)cn(-c3cc(N)c(F)cc3F)c2c1Cl (stereo unspecified) | 153 to 158 °C
CC(C)Oc1cc(CCC(=O)NS(=O)(=O)C2CCCCC2)n(Cc2ccc(Cl)cc2Cl)n1 | 137 to 138 °C
CCn1ncc2c(N)c3c(nc21)CCc1ccccc1C3=O | 132 to 133 °C
COc1ccc2ccccc2c1[N+](=O)[O-] | 129 to 130 °C
Cc1cc2c(=O)c3ccccc3oc2c2c1OC(C(=O)O)C2 (stereo unspecified) | 292 to 295 °C
COc1ccc(CCNC(C)(C)CO)cc1 | 114 to 115 °C
CC(C)(C)OC(=O)C(N)CCCCNC(=O)c1ccc(Cl)c(S(N)(=O)=O)c1 (stereo unspecified) | 158 to 160 °C
Cn1nc(Cl)c2c(=O)n3c(nc21)SCC3 | 222 °C
CCOC(=O)C1=C(C)NC(=O)N(C(=O)OC(C)C)C1c1cccc(Cl)c1Cl (stereo unspecified) | 139 to 140 °C
CC(=O)C1=C(C)NC(C)=C(c2nc(CN(C)Cc3ccccc3)no2)C1c1cccc([N+](=O)[O-])c1 (stereo unspecified) | 138 to 139 °C
CC(C)(C)c1cc(C(C(=O)O)c2cc(C(C)(C)C)c(O)c(C(C)(C)C)c2)cc(C(C)(C)C)c1O | 211 °C
CN1CCN(c2cccc3ccc(O)cc23)CC1 | 112 °C
CC1(Cc2ccccc2)CCCNC1=O (stereo unspecified) | 76 to 78 °C
CCOC(=O)c1cnn(-c2cc(Cl)cc(Cl)c2)c1SC | 70 to 72 °C
Nc1ccccc1NC(=O)c1cc2cccc(OCC(=O)O)c2o1 | 208 to 210 °C
CC(C)(C)Sc1cccc(CCC(O)c2ccccc2)c1NC(=O)CC1c2ccccc2Oc2ccccc21 (stereo unspecified) | 145 to 147 °C
COc1ccc(-c2cnn3c(N)c(-c4cccc(Cl)c4)c(C)nc23)cc1 | 171 to 172 °C
CCC(=O)NCCC1c2cc(OC)ccc2-c2ccc3c(c21)OCO3 (stereo unspecified) | 145 to 147 °C
Nc1ccc(Oc2ccc(C3CCCCC3)cc2)c(N)c1 | 101 °C
Cc1nc(-n2ccc3c(OCc4ccccc4)cccc3c2=O)sc1C(=O)NCc1ccccc1 | 225 to 226 °C

SMILES | melting point
COc1cccc(F)c1-c1ccc(NC(=O)OC(C)(C)C)c([N+](=O)[O-])c1 | 65 to 68 °C
CC(=O)c1ccc(Cl)c(S(N)(=O)=O)c1 | 175 to 176 °C
CC1(C)CC(=O)c2cc(C#N)c(N3CCN(c4ccccc4)CC3)nc2C1 | 167 to 170 °C
CC(=O)N1CCN(c2ccc(Nc3nccc(-c4sc(N(C)c5cccnc5)nc4C)n3)cc2)CC1 | 205 to 206 °C
COCCN(CCOC)c1ccc(NC(=O)Nc2ccc(Oc3ccncc3)cc2)cc1C(F)(F)F | 64.5 to 65 °C
COc1ccc(-n2nc(C(=O)CCCO)cc2-c2ccc(S(C)(=O)=O)cc2)cc1 | 125 to 127 °C
CCOC(=O)C(=Cc1cccc([N+](=O)[O-])c1)C(C)=O | 103 to 106 °C
CCN1c2ccc(C)cc2C2CN(CCCC(=O)c3ccc(F)cc3)CCC21 (stereo unspecified) | 150 to 153 °C
O=C(Nc1ccccc1)OCC#Cc1cc(F)c2ncc(C(=O)NCc3ccc(Cl)cc3)c(O)c2c1 | 227 to 229 °C
N#Cc1cccc(C2C(=O)N(Cc3ccccc3)Cc3cncn32)c1 (stereo unspecified) | 163 to 165 °C
CCOc1nc(N)nc(C(F)(F)F)n1 | 124 to 125 °C
CCOC(CBr)(OCC)c1csc(NC(=N)N)n1 | 157 to 158 °C
CC(=O)NC1CCc2cc3c(cc2C1)OCC3O (stereo unspecified) | 254 °C
COC(=O)N1OCC(=Cc2cc(C(C)(C)C)c(O)c(C(C)(C)C)c2)C1=O | 191 to 192 °C
Cn1c(C(F)(F)F)cc(=O)n(-c2c(F)cc(Cl)c3cc(-c4ccccc4)oc23)c1=O | 215 to 216 °C
CC=CCC(O)C(=O)c1ccccc1 (stereo unspecified) | 83 to 85 °C
Cn1c(=O)c(=O)[nH]c2cc(Cl)ccc21 | 342 °C
CCOc1ccc2nc3[nH]cnc(=O)c3cc2c1OC | 330 to 331 °C
CCOC(=O)CNc1ncccc1NC(=O)c1cccc(Cl)c1 | 143 to 144 °C
CSc1c(C#N)c(=O)n(C)c(=O)n1C | 118 to 120 °C
O=C(Cc1cccnc1)[N+]1([O-])CCC(=C2c3ccc(Cl)cc3CCc3cccnc32)CC1 (stereo unspecified) | 120 to 121 °C
CCNCC1CCN(c2c(F)cc3c(=O)c(C(=O)O)cn(NC)c3c2F)C1 (stereo unspecified) | 222 to 224 °C
COc1ccc(F)c([N+](=O)[O-])c1C | 38 to 40 °C
CCOC(=O)N1Cc2[nH]c3ccc(F)cc3c2C1 | 248 to 249 °C
O=C(O)c1cc(-c2ccc3c(c2)CCO3)nn(Cc2ccc(Cl)cc2)c1=O | 200 to 210 °C
CCCCc1cnc(NCCCOc2cccc(CN3CCCCC3)c2)[nH]c1=O | 105 to 106 °C

SMILES | melting point
O=C(O)COc1ccc(SCc2ccc(OCc3cc(Cl)ccc3Cl)cc2)c2c1CCCO2 | 98 to 100 °C
CCCCCCCCCCCCCCCCNc1c(Cl)cc(C(=O)O)cc1Cl | 92 to 94 °C
COc1ccc(-c2c([N+](=O)[O-])c3ccc(OC)cc3c(=O)n2CC#N)cc1 | 194 to 196 °C
COC12CC(CCOC(=O)c3ccc[nH]3)CN(C)C1Cc1cn(C)c3cccc2c13 (stereo unspecified) | 148 to 149 °C
CCOC(=O)C(CC)c1ccc(N[C@@H](CCC(N)=O)C(=O)O)cc1 (stereo partly specified) | 157 °C
O=C(O)c1ccc2c(c1)S(=O)c1ccc([N+](=O)[O-])cc1C=C2 (stereo unspecified) | 278 to 281 °C
O=C1OC2(CC(c3cccc(Oc4ccccc4)c3)=NO2)c2ccccc21 (stereo unspecified) | 114 to 116 °C
CC1=C(C(=O)OC(C)(C)C)C(c2cccc(Br)c2)C(C(=O)OC(C)(C)C)=C(C)N1 | 195 to 196 °C
CC(C)(C)[C@H]1OC(=O)[C@H](c2cccc(Cl)c2)O1 | 40 to 42 °C
O=C(O)c1cn(CCc2ccc(Cl)cc2)c2cc(C3CC3)nn2c1=O | 220 to 225 °C
N#Cc1nn(-c2c(Cl)cc(C(F)(F)F)cc2Cl)cc1C(=O)C(F)(F)C(F)(F)C(F)(F)F | 102 to 103 °C
COC(=O)OC1C(OCc2ccccc2)C(COCc2ccccc2)OC(C)(OCc2ccccc2)C1NC(C)=O (stereo unspecified) | 116 to 118 °C
CCN(CC)C(=O)CCc1ccc(N)c([N+](=O)[O-])c1 | 98 to 99 °C
Nc1nc(-c2cc(Cl)ccc2Cl)nc(N2CCC[C@H]2C(=O)O)n1 | 144 to 147 °C
CCCCOC(=O)OCN1C(=O)CN(CCN2CC(=O)N(COC(=O)OCCCC)C(=O)C2)CC1=O | 68 to 71 °C
CCN(CC)CCNC(=O)c1cc(Cl)c(N)cc1OCCC(C)O (stereo unspecified) | 136 to 138 °C
O=C1/C(=C(\NCCO)c2ccccc2)Sc2ccccc21 | 122 to 123 °C
CC(=O)Oc1ccc(CC(CCC(=O)O)N2C(=O)c3ccccc3C2=O)cc1 (stereo unspecified) | 142 to 144 °C
CC(C)OC(=O)Nc1ccc2nc(-c3ccccc3)oc2n1 | 210 to 211 °C
C[C@@H](NC(=O)OCc1ccccc1)[C@H](O)C(=O)O | 156 to 158 °C
O=c1[nH][nH]c(=O)c2c(O)c3c(C(F)(F)F)cccc3nc12 | 180 to 182 °C
CN1Cc2ccccc2C(=O)c2c(CC(=O)O)cccc21 | 178 to 181 °C
CCCCC(CC)NC1=NS(=O)(=O)c2sc(Cl)cc2N1 (stereo unspecified) | 165 to 168 °C
